In the supplement of paper PMC10307832:

What was measured:
Assay in all cases: relative viability (nuclei count vs DMSO), 5 days (fraction); higher = more cells survive
NCI-H2228 = system: NCI-H2228
Outline: (§1)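 Dosing by pin tool came one day after lung cancer cell lines were seeded in 1536-well plates, using either one drug or a fixed anchor-drug dose plus five library-drug doses (not always all listed) in √10 steps. After 5 days, nuclei were counted on 4× images. Relative viability is treated-well nuclei count divided by vehicle-well nuclei count, and values are medians of duplicate plates.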

PC-14 = system: PC-14
Outline: as §1

NCI-H661 = system: NCI-H661
Outline: as §1

SK-MES-1 = system: SK-MES-1
Outline: as §1

CAL-12T = system: CAL-12T
Outline: as §1

NCI-H2087 = system: NCI-H2087
Outline: as §1

NCI-H1666 = system: NCI-H1666
Outline: as §1

NCI-H1395 = system: NCI-H1395
Outline: as §1

NCI-H358 = system: NCI-H358
Outline: as §1

NCI-H838 = system: NCI-H838
Outline: as §1

ABC-1 = system: ABC-1
Outline: as §1

NCI-H1355 = system: NCI-H1355
Outline: as §1

NCI-H1651 = system: NCI-H1651
Outline: as §1

UMC-11 = system: UMC-11
Outline: as §1

NCI-H2085 = system: NCI-H2085
Outline: as §1

PC-3 [JPC-3] = system: PC-3 [JPC-3]
Outline: as §1

LK-2 = system: LK-2
Outline: as §1

NCI-H1915 = system: NCI-H1915
Outline: as §1

H3255 = system: H3255
Outline: as §1

A-427 = system: A-427
Outline: as §1

LCLC-97TM1 = system: LCLC-97TM1
Outline: as §1

NCI-H322M = system: NCI-H322M
Outline: as §1

With O=C(O)CCCCC(CCSCc1ccccc1)SCc1ccccc1 (centres undefined) [CPI-613] + O=C(CCCCCCC(=O)Nc1ccccc1)NO [Vorinostat] (partner 1 µM) the relative viability (NCI-H2228; first compound 5 µM) was 0.776, the relative viability (NCI-H2228; first compound 15.81 µM) was 0.402 and the relative viability (NCI-H2228; first compound 50 µM) was 0.559. The relative viability (NCI-H2228; first compound 158.11 µM) was 0.229, the relative viability (NCI-H2228; first compound 500 µM) was 0.0377 and the relative viability (PC-14; first compound 5 µM) was 0.732. The relative viability (PC-14; first compound 15.81 µM) was 0.612, the relative viability (PC-14; first compound 50 µM) was 0.611 and the relative viability (PC-14; first compound 158.11 µM) was 0.0514. For the same compound, the relative viability (PC-14; first compound 500 µM) was 0.0074, the relative viability (NCI-H661; first compound 5 µM) was 0.702 and the relative viability (NCI-H661; first compound 15.81 µM) was 0.702. It also gave a relative viability (NCI-H661; first compound 50 µM) of 0.802, a relative viability (NCI-H661; first compound 158.11 µM) of 0.423 and a relative viability (NCI-H661; first compound 500 µM) of 0.147. It also gave a relative viability (SK-MES-1; first compound 5 µM) of 1.09, a relative viability (SK-MES-1; first compound 15.81 µM) of 0.921 and a relative viability (SK-MES-1; first compound 50 µM) of 1.01. For the same compound, the relative viability (SK-MES-1; first compound 158.11 µM) was 0.169, the relative viability (SK-MES-1; first compound 500 µM) was 0.0799 and the relative viability (CAL-12T; first compound 5 µM) was 0.674. The relative viability (CAL-12T; first compound 15.81 µM) was 0.545, the relative viability (CAL-12T; first compound 50 µM) was 0.708 and the relative viability (CAL-12T; first compound 158.11 µM) was 0.0538. For the same compound, the relative viability (CAL-12T; first compound 500 µM) was 0.039, the relative viability (NCI-H2087; first compound 5 µM) was 0.817 and the relative viability (NCI-H2087; first compound 15.81 µM) was 0.725. It also gave a relative viability (NCI-H2087; first compound 50 µM) of 0.689, a relative viability (NCI-H2087; first compound 158.11 µM) of 0.374 and a relative viability (NCI-H2087; first compound 500 µM) of 0.0093. The relative viability (NCI-H1666; first compound 5 µM) was 1.07, the relative viability (NCI-H1666; first compound 15.81 µM) was 1.01 and the relative viability (NCI-H1666; first compound 50 µM) was 1.01. For the same compound, the relative viability (NCI-H1666; first compound 158.11 µM) was 0.542, the relative viability (NCI-H1666; first compound 500 µM) was 0.417 and the relative viability (NCI-H1395; first compound 5 µM) was 0.792. The relative viability (NCI-H1395; first compound 15.81 µM) was 0.613, the relative viability (NCI-H1395; first compound 50 µM) was 0.871 and the relative viability (NCI-H1395; first compound 158.11 µM) was 0.653. The relative viability (NCI-H1395; first compound 500 µM) was 0.745, the relative viability (NCI-H358; first compound 5 µM) was 0.683 and the relative viability (NCI-H358; first compound 15.81 µM) was 0.561. It also gave a relative viability (NCI-H358; first compound 50 µM) of 0.62, a relative viability (NCI-H358; first compound 158.11 µM) of 0.0809 and a relative viability (NCI-H358; first compound 500 µM) of 0.0166. The relative viability (NCI-H838; first compound 5 µM) was 0.675, the relative viability (NCI-H838; first compound 15.81 µM) was 0.625 and the relative viability (NCI-H838; first compound 50 µM) was 0.797. For the same compound, the relative viability (NCI-H838; first compound 158.11 µM) was 0.3, the relative viability (NCI-H838; first compound 500 µM) was 0.107 and the relative viability (ABC-1; first compound 5 µM) was 1.21. It also gave a relative viability (ABC-1; first compound 15.81 µM) of 0.811, a relative viability (ABC-1; first compound 50 µM) of 0.995 and a relative viability (ABC-1; first compound 158.11 µM) of 0.701. It also gave a relative viability (ABC-1; first compound 500 µM) of 0.318, a relative viability (NCI-H1355; first compound 5 µM) of 0.568 and a relative viability (NCI-H1355; first compound 15.81 µM) of 0.547. For the same compound, the relative viability (NCI-H1355; first compound 50 µM) was 0.537, the relative viability (NCI-H1355; first compound 158.11 µM) was 0.452 and the relative viability (NCI-H1355; first compound 500 µM) was 0.0985. The relative viability (NCI-H1651; first compound 5 µM) was 0.583, the relative viability (NCI-H1651; first compound 15.81 µM) was 0.528 and the relative viability (NCI-H1651; first compound 50 µM) was 0.528. For the same compound, the relative viability (NCI-H1651; first compound 158.11 µM) was 0.438, the relative viability (NCI-H1651; first compound 500 µM) was 0.542 and the relative viability (UMC-11; first compound 5 µM) was 0.355. The relative viability (UMC-11; first compound 15.81 µM) was 0.358, the relative viability (UMC-11; first compound 50 µM) was 0.39 and the relative viability (UMC-11; first compound 158.11 µM) was 0.126. It also gave a relative viability (UMC-11; first compound 500 µM) of 0.1, a relative viability (NCI-H2085; first compound 5 µM) of 0.791 and a relative viability (NCI-H2085; first compound 15.81 µM) of 0.709. For the same compound, the relative viability (NCI-H2085; first compound 50 µM) was 0.657, the relative viability (NCI-H2085; first compound 158.11 µM) was 0.457 and the relative viability (NCI-H2085; first compound 500 µM) was 0.216. It also gave a relative viability (PC-3 [JPC-3]; first compound 5 µM) of 0.83, a relative viability (PC-3 [JPC-3]; first compound 50 µM) of 0.738 and a relative viability (PC-3 [JPC-3]; first compound 158.11 µM) of 0.623. For the same compound, the relative viability (PC-3 [JPC-3]; first compound 500 µM) was 0.389, the relative viability (LK-2; first compound 5 µM) was 0.333 and the relative viability (LK-2; first compound 15.81 µM) was 0.278. It also gave a relative viability (LK-2; first compound 50 µM) of 0.344, a relative viability (LK-2; first compound 158.11 µM) of 0.553 and a relative viability (LK-2; first compound 500 µM) of 0.28. It also gave a relative viability (NCI-H1915; first compound 5 µM) of 0.502, a relative viability (NCI-H1915; first compound 15.81 µM) of 0.54 and a relative viability (NCI-H1915; first compound 50 µM) of 0.488. For the same compound, the relative viability (NCI-H1915; first compound 158.11 µM) was 0.467, the relative viability (NCI-H1915; first compound 500 µM) was 0.0403 and the relative viability (H3255; first compound 5 µM) was 0.765. It also gave a relative viability (H3255; first compound 15.81 µM) of 0.796, a relative viability (H3255; first compound 50 µM) of 0.639 and a relative viability (H3255; first compound 158.11 µM) of 0.821. For the same compound, the relative viability (H3255; first compound 500 µM) was 0.716, the relative viability (A-427; first compound 5 µM) was 0.884 and the relative viability (A-427; first compound 15.81 µM) was 0.822. The relative viability (A-427; first compound 50 µM) was 0.827, the relative viability (A-427; first compound 158.11 µM) was 0.726 and the relative viability (A-427; first compound 500 µM) was 0.492. It also gave a relative viability (LCLC-97TM1; first compound 5 µM) of 0.479, a relative viability (LCLC-97TM1; first compound 15.81 µM) of 0.492 and a relative viability (LCLC-97TM1; first compound 50 µM) of 0.769. It also gave a relative viability (LCLC-97TM1; first compound 158.11 µM) of 0.331, a relative viability (LCLC-97TM1; first compound 500 µM) of 0.0868 and a relative viability (NCI-H322M; first compound 5 µM) of 0.809. The relative viability (NCI-H322M; first compound 15.81 µM) was 0.722, the relative viability (NCI-H322M; first compound 50 µM) was 0.777 and the relative viability (NCI-H322M; first compound 158.11 µM) was 0.703. The relative viability (NCI-H322M; first compound 500 µM) was 0.161.
